The MIC is the smallest concentration in the dilution series that meets the test's criterion for growth inhibition. Lower therefore signals greater potency.

Consider twelve compounds from ChEMBL document CHEMBL4387786, “Mallopenins A-E, Antibacterial Phenolic Derivatives from the Fruits of Mallotus philippensis” (2019).

≈ marks a conversion by molar mass, not a printed value.

One assay concerns Pseudomonas aeruginosa. In words: Antibacterial activity against Pseudomonas aeruginosa by CLSI guideline based broth microdilution method. In kind it is functional.
For another assay, the system named is Salmonella typhimurium. The assay is described as follows: Antibacterial activity against Salmonella typhimurium by CLSI guideline based broth microdilution method. In kind it is functional, Salmonella enterica subsp. enterica serovar Typhimurium. Background: Broth dilution looks for growth in wells or tubes with falling amounts of substance.
A further assay deals with Escherichia coli. In words: Antibacterial activity against Escherichia coli by CLSI guideline based broth microdilution method. In kind it is functional.
Another assay relates to Shigella flexneri. The assay is described as follows: Antibacterial activity against Shigella flexneri by CLSI guideline based broth microdilution method. Type of assay: functional.
Another assay relates to Bacillus cereus. The assay is described as follows: Antibacterial activity against Bacillus cereus by CLSI guideline based broth microdilution method. In kind it is functional.
The test system of another assay is Micrococcus luteus. The assay is described as follows: Antibacterial activity against Micrococcus luteus by CLSI guideline based broth microdilution method. Type of assay: functional.
A further assay concerns Streptococcus mutans. The assay is described as follows: Antibacterial activity against Streptococcus mutans by CLSI guideline based broth microdilution method. Type of assay: functional.
In another assay the test system is Staphylococcus aureus. The assay is described as follows: Antibacterial activity against Staphylococcus aureus by CLSI guideline based broth microdilution method. Type of assay: functional.
The test system of assay [1] is Staphylococcus epidermidis. The assay is described as follows: Antibacterial activity against Staphylococcus epidermidis by CLSI guideline based broth microdilution method. In kind it is functional.

For the compound `CC(=O)c1c(O)c(C)c(O)c(Cc2c(O)c(CC=C(C)C)c(O)c3c2OC(c2ccccc2)CC3=O)c1O` (centres undefined), the minimal inhibitory concentration (MIC) with Pseudomonas aeruginosa was greater than 100 µM; against Salmonella typhimurium (Salmonella enterica), greater than 100 µM; against Escherichia coli, 30.9 µM (≈ 16 µg/mL); against Shigella flexneri it was greater than 100 µM; against Bacillus cereus it was 30.9 µM (≈ 16 µg/mL); in the assay with Micrococcus luteus, 30.9 µM (≈ 16 µg/mL). The figures for the minimal inhibitory concentration (MIC) (in the assay with Streptococcus mutans; against Staphylococcus aureus; in [1]) were 30.9 µM (≈ 16 µg/mL), 61.8 µM (≈ 32 µg/mL) and greater than 100 µM, respectively.
In the case of `CC(C)=CCC/C(C)=C/Cc1c(O)c2c(c(C(=O)/C=C/c3ccccc3)c1O)OC(C)(C)C=C2`, the minimum inhibitory concentration (MIC) against Pseudomonas aeruginosa, against Salmonella typhimurium (Salmonella enterica), with Escherichia coli, against Shigella flexneri, in the assay on Bacillus cereus and with Micrococcus luteus was greater than 100 µM throughout. For the same compound, the MIC (in the assay with Streptococcus mutans; against Staphylococcus aureus; in assay [1]) was greater than 100 µM throughout.
Turning to `CC(=O)c1c(O)c(C)c(O)c(Cc2c3c(c(O)c4c2OC(c2ccccc2)CC4=O)C=CC(C)(C)O3)c1O` (centres undefined), the minimal inhibitory concentration (MIC) against Pseudomonas aeruginosa, in the assay with Salmonella typhimurium (Salmonella enterica), against Escherichia coli, in the assay on Shigella flexneri, in the assay with Bacillus cereus and against Micrococcus luteus was greater than 100 µM each time. The MIC (in the assay with Streptococcus mutans; in the assay on Staphylococcus aureus; in [1]) was greater than 100 µM throughout.
In the case of GENTAMICIN, the MIC in the assay on Pseudomonas aeruginosa amounted to 1 µM; with Salmonella typhimurium (Salmonella enterica subsp. enterica serovar Typhimurium), 1 µM; in the assay with Escherichia coli, 0.5 µM; against Shigella flexneri it was 1 µM.
For the compound `CC(C)=CCc1c(O)c(C(=O)/C=C/c2ccccc2)c2c(c1O)[C@H]1[C@@H]3[C@@H](CC[C@]3(C)O2)C1(C)C`, the MIC against Pseudomonas aeruginosa, against Salmonella typhimurium (Salmonella enterica), with Escherichia coli, in the assay with Shigella flexneri, in the assay with Bacillus cereus and with Micrococcus luteus was greater than 100 µM each time. Also, the minimal inhibitory concentration (MIC) (in the assay on Streptococcus mutans; in the assay with Staphylococcus aureus; in assay [1]) was greater than 100 µM each time.
With `CC(=O)c1c(O)c(C)c(O)c(Cc2c(O)c3c(c(C(=O)/C=C/c4ccccc4)c2O)OC(C)(C)C=C3)c1O` [ROTTLERIN], the minimal inhibitory concentration (MIC) was greater than 100 µM in the assay on Pseudomonas aeruginosa; greater than 100 µM against Salmonella typhimurium (Salmonella enterica); 15.5 µM (≈ 8.01 µg/mL) with Escherichia coli; greater than 100 µM in the assay on Shigella flexneri; 15.5 µM (≈ 8.01 µg/mL) with Bacillus cereus; 15.5 µM (≈ 8.01 µg/mL) with Micrococcus luteus. Also, the values for the MIC (against Streptococcus mutans; in the assay with Staphylococcus aureus; in assay [1]) were 15.5 µM (≈ 8.01 µg/mL), 15.5 µM (≈ 8.01 µg/mL) and greater than 100 µM, respectively.
Take `CC(=O)c1c(O)c(CC=C(C)C)c2c3c1OC1(C)CCC(C3C1)C(C)(C)O2` (racemic): the minimum inhibitory concentration (MIC) in the assay with Pseudomonas aeruginosa, in the assay on Salmonella typhimurium (Salmonella enterica), in the assay with Escherichia coli, against Shigella flexneri, with Bacillus cereus and against Micrococcus luteus was greater than 100 µM each time. Also, the MIC (against Streptococcus mutans; in the assay on Staphylococcus aureus; in assay [1]) was greater than 100 µM in each case.
As for `CC1(C)C=Cc2c(O)c3c(c(CC(=O)O)c2O1)O[C@H](c1ccccc1)CC3=O`, the minimal inhibitory concentration (MIC) with Pseudomonas aeruginosa, against Salmonella typhimurium (Salmonella enterica), in the assay on Escherichia coli, with Shigella flexneri, against Bacillus cereus and with Micrococcus luteus was greater than 100 µM throughout. Also, the MIC (against Streptococcus mutans; against Staphylococcus aureus; in assay [1]) was greater than 100 µM throughout.
Consider `CC(=O)c1c(O)c(C)c(O)c(Cc2c(O)c3c(c(C(=O)/C=C/c4ccc(O)cc4)c2O)OC(C)(C)C=C3)c1O`, for which the MIC in the assay with Pseudomonas aeruginosa is greater than 100 µM; against Salmonella typhimurium (Salmonella enterica) it was greater than 100 µM; in the assay with Escherichia coli, 7.5 µM (≈ 3.99 µg/mL); against Shigella flexneri, greater than 100 µM; with Bacillus cereus it was 3.8 µM (≈ 2.02 µg/mL); with Micrococcus luteus it was 30.1 µM (≈ 16 µg/mL). In addition, the results for the MIC (against Streptococcus mutans; in the assay with Staphylococcus aureus; in assay [1]) were 3.8 µM (≈ 2.02 µg/mL), 15 µM (≈ 7.99 µg/mL) and greater than 100 µM, respectively.
In the case of `CC(=O)c1c(O)c(C)c(O)c(Cc2c3c(c(O)c4c2OC(c2ccc(O)cc2)CC4=O)C=CC(C)(C)O3)c1O` (centres undefined), the MIC was greater than 100 µM in the assay on Pseudomonas aeruginosa; greater than 100 µM in the assay with Salmonella typhimurium (Salmonella enterica); greater than 100 µM in the assay on Escherichia coli; greater than 100 µM in the assay with Shigella flexneri; 30.1 µM (≈ 16 µg/mL) with Bacillus cereus; greater than 100 µM with Micrococcus luteus. In addition, the MIC (with Streptococcus mutans; against Staphylococcus aureus; in [1]) was greater than 100 µM each time.
On to `CN[C@H](CC(C)C)C(=O)N[C@H]1C(=O)N[C@@H](CC(N)=O)C(=O)N[C@H]2C(=O)N[C@H]3C(=O)N[C@H](C(=O)N[C@H](C(=O)O)c4cc(O)cc(O)c4-c4cc3ccc4O)[C@H](O)c3ccc(c(Cl)c3)Oc3cc2cc(c3O[C@@H]2O[C@H](CO)[C@@H](O)[C@H](O)[C@H]2O[C@H]2C[C@](C)(N)[C@H](O)[C@H](C)O2)Oc2ccc(cc2Cl)[C@H]1O` [VANCOMYCIN], for which the MIC against Bacillus cereus turned out to be 0.1 µM (≈ 0.145 µg/mL); in the assay with Micrococcus luteus, 0.2 µM (≈ 0.29 µg/mL); in the assay with Streptococcus mutans it was 0.2 µM (≈ 0.29 µg/mL); in the assay with Staphylococcus aureus, 0.2 µM (≈ 0.29 µg/mL); in [1] it was 0.2 µM (≈ 0.29 µg/mL).
On to `COCc1c2c(c(O)c3c1O[C@H](c1ccccc1)CC3=O)C=CC(C)(C)O2`, for which the MIC against Pseudomonas aeruginosa, against Salmonella typhimurium (Salmonella enterica), in the assay on Escherichia coli, with Shigella flexneri, against Bacillus cereus and against Micrococcus luteus was greater than 100 µM in each case. The MIC (in the assay with Streptococcus mutans; against Staphylococcus aureus; in [1]) was greater than 100 µM each time.
